Test results: patent US20250295757A1 (priority 2022, published 2025)

Tested on: SARS-CoV-2 (WT and OTS virus) in VeroET cells
Assay type: cell-based

SMILES	number of infectious virus particles in a TCID50 virus assay
O=c1[nH]cc(F)c(=O)[nH]1 [5-Fluorouracil]	reduces
CC(C)C(=O)OC[C@H]1O[C@@H](n2ccc(NO)nc2=O)[C@H](O)[C@@H]1O [Malnupiravir]	reduces
